Laboratory results taken from patent US4251539A, “Amino derivatives of 3-alkyl-5-(2-hydroxystyryl)-isoxazoles” (BASF Aktiengesellschaft, priority 1978, dated 1981).

How the values were obtained:
[1] = in vivo; details: for LD 50 / toxicity compared with propranolol (in words): i.p., mice
From the text: 4. Acute toxicity in mice
The period of observation is 1 week.
(4) Intraperitoneal administration to mice.

[2] = tested on: blood pressure in the carotid artery; experiment: animal or person; details: for ED20: Rattus norvegicus, iv, read-out: Blood pressure-lowering action ED 20%; for animals died: 10 mg/kg, rats
Method: 2. Blood pressure-lowering action on narcotized rats.
The blood pressure in the carotid artery is measured by means of a Statham transducer.
(2) Intravenous administration to rats under urethane narcosis. ED 20% =
dose, in mg/kg, which lowers the blood pressure by 20%.

[3] = tested on: isoproterenol-induced tachycardia; details: for ED50: Felis catus, read-out: β-Sympatholytic action ED 50%; for ED50 / β-Sympatholytic action R.A. (relative activity): iv; for β-sympatholytic activity (in words) / β-Sympatholytic action R.A. (relative activity): in vivo
[4] = tested on: systolic blood pressure; experiment: Anti-hypertensive action on spontaneously hypertonic rats (oral); type: in vivo, male spontaneously hypertonic Okamoto rats
Method: 3. Anti-hypertensive action on spontaneously hypertonic rats.
The substances are administered orally to groups of 8 male spontaneously hypertonic Okamoto rats (weight 280-350 g). Before, and two hours after, the administration the systolic blood pressure is measured non-surgically on the rats' tails by means of piezoelectric crystal sensors.

[5] = tested on: blood pressure in the carotid artery; details: general statement, no test or species given; cited from earlier work
[6] = 0.001 mg/kg i.v., cats under hexobarbital narcosis, average

In the case of `Cc1cc(C=Cc2ccccc2OCC(O)CNC(C)C)on1` (stereo not drawn) [Example 1, 3-Methyl-5-[2-(2-hydroxy-3-isopropyl-aminopropoxy)-styryl]-isoxazole], the “LD 50 / toxicity compared with propranolol (in words)” value [1] is reported as “of the same toxicity, or somewhat more toxic”, the ED20 [2] is reported as 0.65 mg/kg and the ED50 [3] is reported as 0.0077 mg/kg. For the same compound, the “β-sympatholytic activity (in words)” value [3] was “high activity”.
For `Cc1cc(C=Cc2ccccc2OCC(O)CNC(C)(C)C)on1` (stereo not drawn) [Example 3, 3-Methyl-5-[2-(2-hydroxy-3-tert.-butylaminopropoxy)-styryl]-isoxazole], the “LD 50 / toxicity compared with propranolol (in words)” value [1] was “somewhat higher than that of propranolol”, the ED20 [2] was 0.4 mg/kg and the animals died ([2]; i.v.) was 1 out of 6. The “Blood pressure-lowering action ED 20%” value ([2]; i.v., rats under urethane narcosis, dose lowering mean carotid artery pressure by 20%) was 0.40 mg/kg, the ED20 ([4]; Rattus norvegicus, po, 2 h, read-out: Anti-hypertensive action ED 20%) was 14.5 mg/kg and the ED50 [3] was 0.0055 mg/kg.
For `CCc1cc(C=Cc2ccccc2OCC(O)CNC2CC2)on1` (stereo not drawn) [Example 5, 3-Ethyl-5-[2-(2-hydroxy-3-cyclopropylaminopropoxy)-styryl]-isoxazole], the “LD 50 / toxicity compared with propranolol (in words)” value [1] was “of the same toxicity, or somewhat more toxic”, the LD50 at 168 h ([1]; mouse, in vivo, ip) was 95 mg/kg and the ED20 [2] was 0.83 mg/kg. For the same compound, the ED50 [3] was 0.12 mg/kg and the “β-Sympatholytic action R.A. (relative activity)” value [3] was 0.9.
In the case of `CCc1cc(C=Cc2ccccc2OCC(O)CNC(C)(C)C)on1` (stereo not drawn) [Example 6, 3-Ethyl-5-[2-(2-hydroxy-3-tert.-butylaminopropoxy)-styryl]-isoxazole], the “LD 50 / toxicity compared with propranolol (in words)” value [1] is reported as “of the same toxicity, or somewhat more toxic”, the ED20 [2] is reported as 0.93 mg/kg and the ED50 [3] is reported as 0.018 mg/kg. For the same compound, the “β-sympatholytic activity (in words)” value [3] was “high activity” and the “β-Sympatholytic action R.A. (relative activity)” value [3] was 6.1.
In the case of `C#CC(C)(C)NCC(O)COc1ccccc1C=Cc1cc(C)no1` (stereo not drawn) [Example 13, 3-Methyl-5-[2-(2-hydroxy-3-(3-methyl-but-1-ynyl-3-amino)-propoxy)-styryl]-isoxazole], the “LD 50 / toxicity compared with propranolol (in words)” value [1] is reported as “more than twice as high as that of propranolol”, the ED20 [2] is reported as 1 mg/kg and the ED50 [3] is reported as 0.017 mg/kg. For the same compound, the “β-Sympatholytic action R.A. (relative activity)” value [3] was 6.5.
For `CC(C)NCC(O)COc1cccc2ccccc12` (stereo not drawn) [Propranolol, reference compound], the animals died ([2]; i.v.) is listed as 2 out of 6, the “anti-hypertensive action of conventional β-sympatholytic agents (in words)” value [5] is listed as “only exhibit an anti-hypertensive action on lengthy administration” and the “anti-hypertensive action, oral (in words)” value ([4]; oral, spontaneously hypertonic rats, propranolol up to a dose of 100 mg/kg) is listed as “ineffective”. The ED50 [3] was 0.11 mg/kg.
With `CC(C)NCC(O)c1ccc(O)c(O)c1` (stereo not drawn) [isoproterenol, reference compound] the “increase of pulse rate” value [3, 6] was 61 beats and the “increase of pulse rate, percent” value [3, 6] was 40%.
